Data taken from PubChem BioAssay (NCI).
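Five concentrations, 48 hours, 96-well plates. GI50 is the concentration that inhibits growth by half. TGI: concentration producing complete growth inhibition.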

Experiments:
Test in all cases: growth of human tumour cells (NCI), 48 h
HCT-15 colon = test system: HCT-15 colon
COLO 205 colon = test system: COLO 205 colon
SNB-19 CNS = test system: SNB-19 CNS
HCT-116 colon = test system: HCT-116 colon
SNB-75 CNS = test system: SNB-75 CNS
HL-60(TB) leukemia = test system: HL-60(TB) leukemia
SK-MEL-28 melanoma = test system: SK-MEL-28 melanoma
MOLT-4 leukemia = test system: MOLT-4 leukemia
PC-3 prostate = test system: PC-3 prostate
MALME-3M melanoma = test system: MALME-3M melanoma

| Structure (SMILES) | GI50 (HCT-15 colon) | TGI (HCT-15 colon) | GI50 (COLO 205 colon) | TGI (COLO 205 colon) | GI50 (SNB-19 CNS) | TGI (SNB-19 CNS) | GI50 (HCT-116 colon) | TGI (HCT-116 colon) | GI50 (SNB-75 CNS) | TGI (SNB-75 CNS) | GI50 (HL-60(TB) leukemia) | TGI (HL-60(TB) leukemia) | GI50 (SK-MEL-28 melanoma) | TGI (SK-MEL-28 melanoma) | GI50 (MOLT-4 leukemia) | TGI (MOLT-4 leukemia) | GI50 (PC-3 prostate) | TGI (PC-3 prostate) | TGI (MALME-3M melanoma) | GI50 (MALME-3M melanoma) |
| --- | --- | --- | --- | --- | --- | --- | --- | --- | --- | --- | --- | --- | --- | --- | --- | --- | --- | --- | --- | --- |
| CC1(C)N=C(N)N=C(N)N1c1cccc(/C=C/C=C/c2cccc([N+](=O)[O-])c2)c1 | 98.1 µM | > 100 µM | 4.4 µM | 19.8 µM | 6.04 µM | 22.5 µM | 3.16 µM | 30.4 µM | 6.88 µM | 21.5 µM | 2.55 µM | 13 µM | 7.1 µM | 20.5 µM | 5.9 µM | 23.6 µM | 0.448 µM | 11.8 µM |  |  |
| Cn1ncc2cc3c(Nc4ccc(Cl)cc4)cccc3nc21 |  | 37.5 µM |  | 28.1 µM |  | > 100 µM |  |  |  | > 100 µM |  | 43.4 µM |  | 35.8 µM |  | 36.3 µM |  |  | 56.3 µM |  |
| COc1ccc(-c2oc3cc(O)c(OC)c(O)c3c(=O)c2OC2OC(CO)C(O)C(O)C2O)cc1 (stereo not given) |  | > 100 µM |  | > 100 µM |  | > 100 µM |  | > 100 µM |  | > 100 µM |  | > 100 µM |  | > 100 µM |  | > 100 µM |  |  |  |  |
| S=c1[nH]nc(COc2ccc(Cl)cc2)o1 |  | 98.6 µM |  | > 100 µM |  | > 100 µM |  | > 100 µM |  | > 100 µM |  | > 100 µM |  | > 100 µM |  | > 100 µM |  |  | > 100 µM |  |
| CCOP(=O)(OCC)C1C(=O)O[C@H]2CCCC[C@@H]12 (stereo not given in full) |  | > 100 µM |  | > 100 µM |  | > 100 µM |  | > 100 µM |  | > 100 µM |  |  |  | > 100 µM |  | > 100 µM |  |  | > 100 µM |  |
| COc1cc(O)c(C(=O)/C=C/c2ccccc2)c(OC)c1 |  | 16.7 µM |  | 28 µM |  | 14.6 µM |  | 20.1 µM |  |  |  | 5.17 µM |  | 13.1 µM |  | 25 µM |  |  | 18.2 µM |  |
| CCOC(=O)C1C=C2O[C@@H]3OC4(CCCCC4)O[C@@H]3C2[C@H]2C(=O)C=CC(=O)[C@@]12C(=O)OC (stereo not given in full) |  | 28.8 µM |  | 22.4 µM |  | 22.9 µM |  | 19.1 µM |  | 35.4 µM |  | 5.83 µM |  | 30 µM |  | 8.71 µM |  |  | 31.2 µM |  |
| CCOC(=O)/C(C1=N[C@H](C(=O)OCC)CS1)=C(\C)O |  | > 100 µM |  | > 100 µM |  | > 100 µM |  | > 100 µM |  | > 100 µM |  | > 100 µM |  | > 100 µM |  | > 100 µM |  |  | > 100 µM |  |
| CCCCN(CCCC)C(=O)C(=O)CC(=O)c1ccc(Br)cc1 |  | > 100 µM |  | > 100 µM |  | > 100 µM |  | > 100 µM |  |  |  | > 100 µM |  |  |  | > 100 µM |  |  | > 100 µM |  |
| CC(=O)c1ccc(Nc2cc(-n3ccnc3)nc3ccccc23)cc1 | 34.2 µM | > 100 µM | > 100 µM | > 100 µM | > 100 µM | > 100 µM | 30.5 µM | > 100 µM | 38.2 µM | > 100 µM |  |  | 29.8 µM | > 100 µM | 10.7 µM | 58.1 µM | 20.5 µM | > 100 µM | 56.5 µM | 15.4 µM |
| Cc1cc(Br)cc(C)c1NC(=O)C(=O)CC(=O)c1sc(-n2nc(-c3ccccc3)cc2-c2ccccc2)nc1C |  | > 100 µM |  | > 100 µM |  | > 100 µM |  | > 100 µM |  | > 100 µM |  | > 100 µM |  | > 100 µM |  | > 100 µM |  |  | > 100 µM |  |
| CC(=O)O[C@H]1C(=O)[C@@]2(C)C([C@H](OC(=O)c3ccccc3)[C@]3(O)C[C@H](OC(=O)[C@H](O)[C@H](NC(=O)c4ccccc4)c4ccc(Cl)cc4)C(C)=C1C3(C)C)C1(OC(C)=O)CO[C@@H]1C[C@@H]2O (stereo not given in full) | 0.0583 µM | > 100 µM |  | 0.00842 µM |  | 45.3 µM |  |  |  |  |  |  |  |  |  | 2.36 µM |  |  | 26.3 µM |  |
| NNC(=O)/C(=C/c1cccc([N+](=O)[O-])c1)NC(=O)c1ccccc1 |  | > 100 µM |  | > 100 µM |  | > 100 µM |  | > 100 µM |  | > 100 µM |  | > 100 µM |  | > 100 µM |  | > 100 µM |  |  | > 100 µM |  |
| Cn1nc(-c2ccccc2NC(=O)C(F)(F)F)c(=O)n(C)c1=S |  |  |  |  |  | > 100 µM |  | > 100 µM |  | 59.4 µM |  |  |  | 30.1 µM |  | > 100 µM |  |  | > 100 µM |  |
| O=C1CC(=O)N(C2CCCCC2)C(=O)N1c1ccccc1S(=O)(=O)Oc1ccccc1 |  | > 100 µM |  | > 100 µM |  | > 100 µM |  | > 100 µM |  | > 100 µM |  | > 100 µM |  | > 100 µM |  | 37.8 µM |  | > 100 µM |  |  |
| ClC(=Nc1cccc2ccccc12)N(c1ccccc1)c1ccccc1 |  | > 100 µM |  |  |  | > 100 µM |  | > 100 µM |  | > 100 µM |  |  |  | > 100 µM |  |  |  | > 100 µM | > 100 µM |  |
| CCOC(=O)Cc1c(Cc2[nH]c(C(=O)OCc3ccccc3)c(CC(=O)OCC)c2CC(=O)OCC)[nH]c(C(=O)OCc2ccccc2)c1CC(=O)OCC |  | > 100 µM |  | > 100 µM |  | > 100 µM |  | > 100 µM |  | > 100 µM |  | > 100 µM |  | > 100 µM |  | > 100 µM |  |  | > 100 µM |  |
| CC(=O)[CH-]C(=O)c1ccccc1.CC(=O)[CH-]C(=O)c1ccccc1.CCN(CC)CC[O-].CCN(CC)CC[O-].Cl.[Ti+4] | 36.4 µM | > 100 µM |  |  | 23.7 µM | 69.5 µM | 27.2 µM | > 100 µM | 21.9 µM | 47.3 µM | 19.6 µM | 61.2 µM | 32.9 µM | 92.6 µM | 16.8 µM | 59.9 µM |  |  | 60.8 µM | 22.8 µM |
| C=C(c1ccccc1N)[C@@]1(O)C[C@H](/C(=C\C)CO)C[C@@H]1NCc1ccccc1 |  | > 100 µM |  | 33 µM |  | 79.5 µM |  | 28.7 µM |  | 24.6 µM |  | 29.9 µM |  | 33 µM |  | 39.7 µM |  |  | 28.4 µM |  |
| CC(=O)Oc1c(C)n(CCCl)ccc1=O |  | > 100 µM |  | > 100 µM |  | > 100 µM |  | > 100 µM |  | > 100 µM |  | > 100 µM |  | > 100 µM |  | > 100 µM |  |  | > 100 µM |  |
| CC(Cl)(/C=C/Cl)C(Cl)/C=C/C(Cl)(CCl)CBr (stereo not given) |  | 4.24 µM |  | 4.94 µM |  | 27.3 µM |  | 3.39 µM |  | 14.5 µM |  | 5.32 µM |  | 8.27 µM |  | 3.36 µM |  |  | 13.7 µM |  |
